Laboratory results reported in US20230097753A1, “ALPHA-HYDROXYLATED FATTY-ACID METABOLITES, MEDICAL USES AND USE AS BIOMARKERS” (UNIVERSITAT DE LES ILLES BALEARS, priority 2020, published 2023).
Several values for one entry are separate records, joined by “and”; a condition that tells them apart may be missing. Equal entries are not always repeated. Values belong to the compound of their own block, whether it stands above or below them.

Legend:
[1] = defined in preclinical studies; cited from earlier work
[2] = Fatty acids in rat plasma after oral 2OHOA sodium salt (gas chromatography); assay type: in vivo; settings: for Maximum plasma concentration: 2 hours after oral 2OHOA sodium salt 2 g/Kg; for Maximum plasma concentration / Time of maximum plasma concentration: acute treatment
Procedure: FIG. 20. […] Statistical significance is determined with a Wilcoxon test (*p<0.05 and **p<0.01 with respect to baseline levels at 0 hours; $p<0.05 and $$p<0.01 with respect to 2OHOA fatty acid levels).
FIG. 21. […] Statistical significance is determined by a Wilcoxon test (*p<0.05 and **p<0.01 with respect to baseline levels at 0 hours; $p<0.05 and $$p<0.01 with respect to 2OHOA fatty acid levels).
For the present study, 2 g of 2OHOA/Kg sodium salt was administered to rats 12-14 weeks of age orally for 15 days. Subsequently, plasma samples were extracted at different times (0, 1, 2, 3, 4, 6, 8 and 24 h) from day 1 (acute treatment) and 15 (chronic treatment). Finally, the fatty acid profile in plasma samples was analyzed by gas chromatography.

SF-295 = test: Cell survival by trypan blue vital exclusion staining, 2OHOA and oxythiamine; assay type: cell-based, human
Procedure: FIG. 18. Effect of metabolite C17:1n-9 on the action of 2OHOA. […] Cell viability was determined by vital exclusion staining with trypan blue.
(§1) To study whether the metabolite C17:1n-9 can participate in the action of 2OHOA, the effect of pre-incubation with oxythiamine on cell survival and 2OHOA-regulated proteins was studied. To do this, the cell survival of different glioma and non-tumor cell lines treated with 2OHOA (400 μM, 72 hours) and pre-incubated or not with 2 mM […] (90 minutes) was analyzed by counting the cells with the vital exclusion stain with trypan blue. In addition, Western-blot 2OHOA-modulated proteins were studied. In glioma cells, a significant decrease in cell survival was observed after incubation with 2 mM oxythiamine for 72 hours.

[3] = test system: BIP, CHOP, cJun phosphorylation, phosphorylation of Akt, cyclin D3; test: Western Blot of proliferation and death markers in glioma and non-tumor cell lines; assay type: cell-based; settings: 200 μM C17:1n-9, 200 μM OA or 400 μM 2OHOA, 72 hours
Procedure: FIG. 16. Analysis of the effect of different fatty acids on markers of proliferation and death in different cell lines.
as §1

[4] = test system: MRC-5 (human fibroblasts); settings: 24 h, 400 μM
Excerpt: (§4) Analysis of the composition of fatty acids in different glioma and non-tumor cell lines after treatment with 2OHOA sodium salt. […] The black bar corresponds to the concentration of each fatty acid in the control, and the white bar corresponds to the concentration of the fatty acid after treatment with 2OHOA sodium salt. C17:0 margaric acid is included as an internal control. The columns show the mean±SEM of three independent experiments expressed in nmoles and normalized per mg of protein. Statistical significance is determined with a Student's t-test (**p<0.01, ***p<0.001 with respect to the control).

SF-295 glioma cells [5] = settings: human, 24 h, 400 μM
Excerpt: as §4

mouse astrocytes [6] = settings: 24 h, 400 μM
Excerpt: as §4

SF-295 glioma cells [7] = test: Cell viability by violet crystal staining, 72 hours; assay type: cell-based, human; settings: for IC50: SF-295, 72 hours
Procedure: FIG. 14. Effect of 2OHOA sodium salt, OA and C17:1n-9 sodium salt on cell viability and proliferation of glioma cells. […] Viability was determined by violet crystal staining.
(§2) In order to evaluate the antiproliferative effect of C17:1n-9, its IC50, which corresponds to the amount of a compound needed to reduce cell viability in vitro by 50%, as well as its effect on the regulation of proteins involved in the mechanism of action of 2OHOA, were determined. […] Upon completion of treatment, IC50 was determined by violet crystal staining technique. […] The IC50 of 2OHOA was 1000 μM for non-tumor cells, MRC-5 and astrocytes.

mouse astrocytes [8] = test: as above; assay type: cell-based; settings: Astrocyte, Astrocytes non-tumor cells
Procedure: (§3) FIG. 15. Effect of 2OHOA sodium salt, C17:1n-9 sodium salt, and OA on cell viability and proliferation of non-tumor cells. Non-tumor cell viability curves (A1-A3) MRC-5 (human fibroblasts); and (B1-B3) mouse astrocytes treated with increasing doses of 2OHOA sodium salt (0-1000 μM) (A1 and B1); OA (0-300 μM) (A2 and B2); and C17:1n-9 sodium salt (0-300 μM) (A3 and B3) for 72 hours. Viability was determined by violet crystal staining.
as §2

[9] = test system: MRC-5 (human fibroblasts); test: as above; assay type: cell-based
Procedure: as §3, §2

[10] = Fatty acids in plasma of patients with advanced glioma treated with 2OHOA sodium salt; assay type: in vivo, human; settings: for Time of peak plasma levels: first day
Procedure: FIG. 24. Analysis of composition in fatty acids in human patients with advanced glioma. (A) Representative chromatogram of the fatty acid composition of a patient with glioma responsive to treatment with 2OHOA sodium salt (12 g/day, 21 days) and determined in plasma samples obtained at different treatment times (0, 4 and 360 hours, 15 days) by gas chromatography. […] The C17:0 margaric acid in the chromatograms was quantified as internal control.
Plasma samples were obtained at different times (0, 2, 4, 6, 8 hours and after 8, 15, 21 and 28 days after treatment with 2OHOA) and were subsequently given for fatty acid analysis using the gas chromatography technique.

[11] = test system: MRC-5 (human fibroblasts); test: Fatty acid composition by gas chromatography after treatment with 2OHOA; settings: MRC-5, 2OHOA 400 μM for 24 hours
Excerpt: as §4

mouse astrocytes [12] = test: as above; settings: 2OHOA 400 μM for 24 hours
Excerpt: as §4

[13] = patients, 12 g/day 2OHOA sodium salt

SMILES: CCCCCCCC/C=C\CCCCCCC(O)C(=O)O (stereo not shown) [2OHOA, 2-hydroxyoleic acid]
Maximum tolerated dose [1]: 2000 mg/kg
Maximum plasma concentration [2]: 26.23±5.79 nmol/ml plasma
Time of maximum plasma concentration ([2]; oral 2OHOA sodium salt 2 g/Kg): 2 h
concentration at 8 h ([2]; plasma, oral 2OHOA sodium salt 2 g/Kg, read-out: Plasma level after 8 hours): 7.12 ± 1.56 µM
concentration at 0 h ([2]; plasma, oral 2OHOA sodium salt 2 g/Kg, read-out: Plasma level at 0 hours (initial levels, prior to administration)): 1.22 ± 0.33 µM
concentration at 24 h ([2]; plasma, oral 2OHOA sodium salt 2 g/Kg, read-out: Plasma level at 24 hours (trough values)): 2.8 ± 0.69 µM
Cell death (SF-295; SF-295, 2OHOA 400 μM, 72 hours): 23.97±1.25%
Cell death (SF-295; SF-295, 2OHOA combined with 2 mM oxythiamine): 10.85±0.58%
Recovery in cell viability (SF-295; SF-295, 2OHOA combined with 2 mM oxythiamine vs 2OHOA alone): 17.25%
Effect on signaling proteins (Western Blot) [3]: increased levels of BIP, CHOP and cJun phosphorylation and decreased phosphorylation of Akt and cyclin D3 levels
2OHOA accumulated more than its metabolite C17:1n-9 [4]: 46%
Level of the fatty acid in cells after treatment with 2OHOA (SF-295 glioma cells [5]): 9.21 nmol/mg
2OHOA accumulated more than its metabolite C17:1n-9 (mouse astrocytes [6]): 38.27%
IC50 (SF-295 glioma cells [7]; Homo sapiens): 399 ± 11.5 µM
IC50 of 2OHOA relative to that of metabolite C17:1n-9 (SF-295 glioma cells [7]; SF-295): 1.60 times
IC50 of 2OHOA relative to that of non-hydroxy analogue OA (SF-295 glioma cells [7]; SF-295): 1.56 times
IC50 (mouse astrocytes [8]): > 1000 µM
IC50 ([9]; Homo sapiens, MRC5, MRC-5 non-tumor cells): > 1000 µM
concentration at 4 h ([10]; human, plasma, oral, patients (responders and non-responders), 12 g/day 2OHOA sodium salt, read-out: Plasma level 4 hours after the first intake): 53.1 ± 6.52 µM
concentration at 8 h ([10]; human, plasma, oral, patients, 12 g/day 2OHOA sodium salt, read-out: Plasma level 8 hours after treatment): 25.4 ± 3.99 µM
concentration at 360 h ([10]; human, plasma, oral, patients, 12 g/day 2OHOA sodium salt, read-out: Plasma level after 15 days (360 hours) of treatment): 185 ± 25.6 µM
concentration at 192 h ([10]; human, plasma, oral, patients, 12 g/day 2OHOA sodium salt, read-out: Plasma level at 8 days of treatment (192 hours)): 25.4 ± 3.99 µM
Plasma level after 15 days (360 hours) of treatment [10, 13]: 141.10±16.35 nmol/ml plasma
Plasma level at 8 days of treatment (192 hours) [10, 13]: 25.39±3.99 nmol/ml plasma
Plasma level at 21 days of treatment [10, 13]: 184.70±25.60 nmol/ml plasma
Time of peak plasma levels [10, 13]: 4 h

Maximum plasma concentration [2]: 60.47±6.53 nmol/ml plasma
Plasma level after 8 hours ([2]; oral 2OHOA sodium salt 2 g/Kg): 23.31±5.18 nmol/mL plasma
Plasma level at 0 hours (initial levels, prior to administration) ([2]; oral 2OHOA sodium salt 2 g/Kg): 8.45±2.52 nmol/ml plasma
Time of maximum plasma concentration ([2]; oral 2OHOA sodium salt 2 g/Kg): 2 h
Level of the fatty acid in cells after treatment with 2OHOA [11]: 14.00 nmol/mg
Level of the fatty acid in cells after treatment with 2OHOA (mouse astrocytes [12]): 7.58 ± 0.70 nmol/mg and 7.58 nmol/mg
IC50 (SF-295 glioma cells [7]): 249 ± 6.02 µM
Plasma level 4 hours after the first intake ([10]; patients (responders and non-responders), 12 g/day 2OHOA sodium salt): 122.80±10.61 nmol/ml of plasma
C17:1n-9 plasma levels relative to 2OHOA ([10]; patients at 21 days of treatment): 1.90 times
C17:1n-9 plasma levels relative to 2OHOA ([10]; patients treated for 8 days): 3.66 times
C17:1n-9 plasma levels relative to 2OHOA ([10]; patients treated for 15 days): 2.20 times
Plasma level 8 hours after treatment [10, 13]: 92.89±9.39 nmol/ml of plasma
Plasma level at 21 days of treatment [10, 13]: 366.9±72.47 nmol/ml plasma
Time of peak plasma levels [10, 13]: 4 h
SMILES: CCCCCCCC/C=C\CCCCCCC(=O)O [C17:1n-9, 8Z-heptadecenoic acid]
Plasma level at 24 hours (trough values) ([2]; oral 2OHOA sodium salt 2 g/Kg): 14.03±2.20 nmol/ml plasma and 14.03±2.21 nmol/ml plasma
Effect on signaling proteins (Western Blot) [3]: did not produce changes in any of these proteins
IC50 ([9]; MRC-5 non-tumor cells): 248 ± 7.28 µM
